Test results as given in patent US20150274777A1, “KETOAMIDE IMMUNOPROTEASOME INHIBITORS” (HOFFMANN-LA ROCHE INC., priority 2012, published 2015).

Assays:
β2c/2i = test: Cell-Based Proteasome Activity/Selectivity Assay (Ramos cells), substrate (KQL)2Rh110; details: highest concentration tested 20 μM
Method in brief: (§1)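 Ramos cells (5×10^4/well in DPBS) were treated with 4-fold compound dilutions (top 20 μM) for 30 min at 37 °C. A 2× mix of 0.025% digitonin, 20 μM of each Rh110 substrate and 0.5 M sucrose was added, then incubated 120 min at room temperature. Rh110 fluorescence was read at 500/519 nm.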

β1c = biological target: T1, β1c (Homo sapiens, UniProt P28072+Q99436); test: Cell-Based Proteasome Activity/Selectivity Assay (Ramos cells), substrate (LLE)2 Rh110; details: highest concentration tested 20 μM
T1 construct: protease activity associated with the proteasome complex in cultured cells; endogenous in cells; host or cells: Ramos cells
Method in brief: as §1

β1i = biological target: T2, β1i (Homo sapiens, UniProt P28065+P40306); test: Cell-Based Proteasome Activity/Selectivity Assay (Ramos cells), substrate (PAL)2Rh110; details: highest concentration tested 20 μM
T2 construct: protease activity associated with the proteasome complex in cultured cells; endogenous in cells; host or cells: Ramos cells
Method in brief: as §1

β5c = biological target: T3, β5c (Homo sapiens, UniProt P20618+P28074); test: Cell-Based Proteasome Activity/Selectivity Assay (Ramos cells), substrate (WLA)2Rh110; details: highest concentration tested 20 μM
T3 construct: protease activity associated with the proteasome complex in cultured cells; endogenous in cells; host or cells: Ramos cells
Method in brief: as §1

[1] = system: IP10 level in PBMCs stimulated with CpG Type A; test: PBMC IP-10 Assay; format: cell-based; details: CpG Type A 2.5 μM
Method in brief: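 Human PBMCs (~2×10^5/well) preincubated 60 min at 37° C. with titrated compound (1% DMSO final), then stimulated with CpG Type A (ODN 2216) at 2.5 μM final overnight. Supernatant IP-10 quantified by AlphaLISA; viability of remaining cells by ATP luminescence.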

β5i = biological target: T4, β5i (Homo sapiens, UniProt P20618+P28062); test: Cell-Based Proteasome Activity/Selectivity Assay (Ramos cells), substrate (ANW)2Rh110; details: highest concentration tested 20 μM, read-out: Ic50 ramos:ac-(anw)2-r110
T4 construct: protease activity associated with the proteasome complex in cultured cells; endogenous in cells; host or cells: Ramos cells
Method in brief: as §1

[2] = system: DSS-induced colitis model; details: DSS-induced colitis model in mice; cited from earlier work
[3] = system: mouse CAIA and CIA arthritis models; details: cited from earlier work
[4] = system: MRL/lpr lupus-prone mice model; details: cited from earlier work

SMILES	IC50 (β2c/2i) [µM]	IC50 (β1c) [µM]	IC50 (β1i) [µM]	IC50 (β5c) [µM]	EC50 [1] [µM]	IC50 (β5i) [µM]	inflammation and tissue destruction [2]	disease score [3]	disease progression [4]	plasma cells numbers and levels of anti-dsDNA IgG [4]
COc1ccc(C[C@H](NC(=O)[C@H](C)NC(=O)C2Cc3ccccc3C2)C(=O)NC2(C(=O)C(=O)NCc3ccccc3)Cc3ccccc3C2)cc1 [Example 59, Indan-2-carboxylic acid {(S)-1-[(S)-1-(2-benzylaminooxalyl-indan-2-ylcarbamoyl)-2-(4-methoxy-phenyl)-ethylcarbamoyl]-ethyl}-amide]	> 20	> 20	> 20	1.36	11.7	0.089	–	–	–	–
COc1ccc(C[C@H](NC(=O)[C@H](C)NC(=O)CN2CCOCC2)C(=O)N[C@@H](Cc2ccccc2)C(=O)[C@@]2(C)CO2)cc1 [PR-957]	–	–	–	–	–	–	reduced	significantly decreased	prevented	reduced
